Data published in patent publication US20140045809A1, “CORROLES FOR NEUROPROTECTION AND NEURORESCUE” (priority 2008, published 2014).
Entries after “also recorded” stand apart in the source; their conditions may differ. Each block holds one compound with its values, some of them ahead of it.

Columns and labels:
[1] = SOD activity (catalytic decomposition of superoxide anion radical), cytochrome C assay; format: biochemical
Protocol: (§1) SOD activity (enzyme-like catalytic decomposition of superoxide anion radical) of the corroles 1C-Fe, 6C-Fe, 1C-Mn, 1C-Cu, 2C-Mn and 3C-Mn was examined via the cytochrome C assay. The catalytic rate constants for decomposition of peroxynitrite (PN) by the newly prepared iron corrole 6C-Fe and manganese corrole 3C-Mn were determined via stopped-flow kinetics as previously described for corroles 1C-Fe, 1C-Mn, and 2C-Mn (Mahammed and Gross, 2006; Gershman et al., 2007). These tests are performed in order to estimate how electronic and structural variables affect reactivity, which is a crucial factor for design of new complexes.

[2] = Catalytic decomposition of peroxynitrite (PN), stopped-flow kinetics (Table 1); format: biochemical
Protocol: as §1

[3] = Rescuing DMSO from damage attributed to the hydroxyl radical (Fenton reaction); format: biochemical; conditions: for Yield (%) or amount of product (Formaldehyde): substrate DMSO
Excerpt: Corrole complexes were examined with respect to their efficiency of rescuing DMSO from damage attributed to the hydroxyl radical, formed via the Fenton reaction that also involves superoxide anion radical and hydrogen […]. It also mimics reaction occurring in biological systems that are exposed to metal toxicity, the situation that occurs in diseases caused by brain iron accumulation.

[4] = test system: RIN-m cells; assay: Protection of RIN-m beta cells against H2O2 toxicity (MTT); format: cell-based, rat; conditions: H2O2 150 μM
Protocol: Two insulin-secreting beta cell lines, rat insulinoma (INS-1E) and RIN-m cells, were used to examine the protective effect of corrole 1C-Fe. The cells were cultured at 37° C., in a humid 5% CO2, 95% air environment in regular RPMI-1640 medium (Invitrogen) supplemented with 5% fetal calf serum (FCS).
After 2 days of culture, RIN-m cells (5×10^4 cells/well in 96-well plates) were treated with corrole 1C-Fe (1-50 μM) before addition of 35 μM of H2O2. Cell viability was evaluated by a colorimetric assay for mitochondrial function estimation using the MTT test as previously described (Gassen et al., 1998) and expressed as percentage of control.
RIN-m cells were grown as described in Example 5. After 3 days of culture, RIN-m cells (2.5×10^4 cells/well in 96-well plates) were treated with corroles 1C-Fe or 5C-Fe or porphyrin 1P-Fe (1 and 20 μM), added 30 min prior to treatment with 35 μM H2O2 and further incubated for 24 h. Cell injury was evaluated by MTT test. […] […].
Protective effect of iron(III) corrole complexes against H2O2-induced toxicity (150 μM) was compared to that of manganese(III) corroles and related porphyrin. […].

[5] = test system: RIN-m cells; assay: Protection of RIN-m cells against SIN-1 toxicity (MTT); format: cell-based, rat; conditions: 0.1-20 μM, 30 min before SIN-1 (800 μM), 24 h
Protocol: INS-1E cells or RIN-m cells were cultured in RPMI with low serum content (2% FCS), placed in microtiter plates (96 wells) at a density of 2.5×10^4 cells/well and allowed to attach for 24 h before treatment. Corroles 1C-Fe and 5C-Fe (10 μM) were added 30 min prior to insult with the nitric oxide donor SIN-1 (500 or 600 μM) for a subsequent 24 h period. Cell viability was evaluated by a colorimetric assay for mitochondrial function using 3-(4,5-dimethylthiazol-2-yl)-2,5-diphenyltetrazolium bromide (MTT test), and expressed as percentage of untreated control. Values higher than 100% reflect increased mitochondrial activity induced by the drug. The results represent the mean±SEM of three independent experiments performed under the same conditions.
Insulin-secreting RIN-m cells were incubated in RPMI with low serum content (2% FCS) and placed in microtiter plates (96 wells) at a density of 2.5×10^4 cells/well and allowed to attach for 24 h before treatment. Cells were treated with corroles 1C-Fe, 1C-Mn or 2C-Mn or porphyrins 1P-Fe or 2P-Mn, in various concentrations (0.1-20 μM), for 30 min prior to insult with SIN-1 (800 μM) for a subsequent 24 h period. Cell viability was evaluated by MTT test and expressed as percentage of untreated control.

[6] = Peroxynitrite decomposition rates by manganese corroles (Example 2); format: biochemical; conditions: 385 μM peroxynitrite, pH 7.4, 25° C., absorbance at 302 nm; Table 2
Protocol: The investigations were performed by examining the decay of 385 μM peroxynitrite at pH 7.4 and 25° C. in the presence and absence of various amounts of Mn corrole catalysts 2C-Mn, 2C′-Mn, 2C″-Mn, 3C-Mn and 4C-Mn. The differences between 2C-Mn, 2C′-Mn, and 2C″-Mn is in the identity of the 10-aryl group, which is C6F5, para-anisyl, and phenyl, respectively. The results (one example using 4C-Mn is shown in FIG. 1) were obtained by monitoring changes in absorbance at 302 nm, the λmax of peroxynitrite. The catalytic performances of five of the above compounds were tested; and the thus elucidated kcat values are presented in Table 2. Importantly, in sharp contrast with the corroles, none of the structurally similar manganese (III) porphyrin complexes affected the decomposition of peroxynitrite by any extent (not shown).

[7] = test system: SH-SY5Y cells; assay: Neuroprotection/neurorescue against SIN-1-induced cell death in SH-SY5Y cells; format: cell-based, human
Protocol: SH-SY5Y cells were cultured in DMEM-Eagle/F-12(HAM) (1:1) containing 10% FCS. Cells were resuspended in medium containing 2% FCS, seeded in microtiter plates (96 wells) and allowed to attach for 24 h before initiation of treatment. […]

[8] = test system: nitrotyrosine (Ntyr); assay: SIN-1-induced cellular protein nitration, nitrotyrosine immunofluorescence in SH-SY5Y cells; format: cell-based, human; conditions: 20 μM corrole, SIN-1 700 μM, 24 h
Protocol: To determine the effect of the corroles on SIN-1-induced cellular protein nitration, SH-SY5Y neuroblastoma cells were treated with SIN-1 (700 μM) in the absence or presence of 20 μM of the corroles 1C-Fe, 2C-Mn, and 3C-Mn. Protein nitration was detected by immunofluorescence analysis using a monoclonal antibody against nitrotyrosine (Ntyr), a biological marker of peroxynitrite.

[9] = test system: SH-SY5Y cells; format: cell-based; conditions: 20 μM
Protocol: SH-SY5Y cells were cultured in DMEM-Eagle/F-12(HAM) (1:1) containing 10% FCS. Cells were resuspended in medium containing 2% FCS, seeded in microtiter plates (96 wells) and allowed to attach for 24 h. To examine the neuroprotective effect, cells were pretreated for 30 min with corroles 1C-Fe and 5C-Fe (1-20 μM), and were then exposed to 6-OHDA (60 μM) for further 24 h. For neurorescue assessment, SH-SY5Y cells were first treated with 6-OHDA (60 μM) for 0.5 h, 1.5 h, 3 h and 6 h followed by the addition of compounds 1C-Fe and 5C-Fe (10 μM) for further 24 h.
(§2) SH-SY5Y cells were pretreated with or without corroles 1C-Fe, 2C-Mn and 3C-Mn and porphyrins 1P-Fe and 2P-Mn (20 μM), 30 min before exposure to 6-OHDA (40 μM) for a subsequent 24 h period. Cell viability was evaluated by MTT test and cell death was assessed using the apoptotic cell death detection ELISA kit. For neurorescue, SH-SY5Y cells were first exposed to 40 μM 6-OHDA for 0.5. 1, 1.5 and 3 h, followed by the addition of the compounds 1C-Fe, 2C-Mn and 3C-Mn (20 μM) and incubated for further 24 h. Growth-associated protein (GAP-43) was detected by fluorescence microscopy using a specific primary antibody. Apoptotic nuclei were determined by terminal deoxynucleotidyl transferase-mediated UTP-digoxigenin nick end labeling analysis. 4′,6-Diamidino-2-phenylnidole (DAPI) staining was applied for nuclear labeling. […]

[10] = test system: cleaved caspase-3; assay: Cleaved caspase-3 level in 6-OHDA-treated SH-SY5Y cells, immunofluorescence; format: cell-based, human; conditions: 20 μM, 30 min before 6-OHDA (40 μM), 24 h
Protocol: as §2
Since 6-OHDA is also known to induce apoptosis in various cell types, including SH-SY5Y (von Coelln et al. 2001; Nie et al. 2002; Shimizu et al. 2002; Jordan et al. 2004), we further tested effect of corroles on the levels of the apoptotic marker, cleaved caspase-3, a major executer of the mitochondrial intrinsic pathway of apoptosis.

[11] = test system: SH-SY5Y cells; format: cell-based; conditions: up to 50 μM; data not shown
[12] = CuSO4/ascorbate, no additive 44 μM
[13] = CuSO4/glutathione, no additive 11 μM
[14] = 30 min before 6-OHDA (40 μM), 24 h

- IC50 [1]: 5.9 µM
Structure (SMILES): O=S(=O)(O)c1cc2[n]3c1C(c1c(F)c(F)c(F)c(F)c1F)=C1C=CC4=[N+]1[Mn-]31[n]3c(cc(S(=O)(=O)O)c3-2)C(c2c(F)c(F)c(F)c(F)c2F)=c2ccc([n]21)=C4c1c(F)c(F)c(F)c(F)c1F (centres unmarked) [1C-Mn, 2,17-bis(sulfonato)-5,10,15-tris(pentafluorophenyl)-corrolato manganese(III)]
- kcat, catalytic rate constant for decomposition of PN [2]: 40000 M⁻¹ s⁻¹
- Yield (%) or amount of product (Formaldehyde) [3, 12]: 20 µM
- Yield (%) or amount of product (Formaldehyde) [3, 13]: 7 µM
- cytoprotective effect against H2O2-induced toxicity [4]: totally inefficient; also recorded: inefficiency
- protective effect against SIN-1 induced toxicity (MTT), comparative [5]: ineffective

Structure (SMILES): C[n+]1ccccc1C1=C2C=CC3=[N+]2[Mn-]24[n]5c1ccc5-c1ccc([n]12)C(c1cccc[n+]1C)=c1ccc([n]14)=C3c1cccc[n+]1C (centres unmarked) [3C-Mn, 5,10,15-tris(N-methyl-2-pyridilium)corrolato manganese(III)]
- IC50 [1]: 3.27 µM
- kcat, catalytic rate constant for decomposition of PN [2]: 25000 M⁻¹ s⁻¹
- kcat, peroxynitrite decomposition rate [6]: 25000 M⁻¹ s⁻¹
- Yield (%) or amount of product (Formaldehyde) [3, 12]: 0 µM
- Yield (%) or amount of product (Formaldehyde) [3, 13]: 0 µM
- preventing oxidative damage / protection against metal-induced oxidation of substrates ([3]; summary of Table 3): protect better than corrole 1C-Mn
- cytoprotection against different SIN-1 concentrations ([7]; 25 μM corrole, FIG. 12C): protect cells against different SIN-1 concentrations
- protection against SIN-1 (MTT reduction analysis and ELISA assay) ([7]; 30 min before SIN-1, 24 h (Example 12)): protect, in a dose-dependent manner; also recorded: more effective not only than 2C-Mn
- nitrotyrosine (Ntyr) staining, SIN-1-induced [8]: totally abolished
- protection against 6-OHDA compared with porphyrins 1P-Fe and 2P-Mn ([9]; 6-OHDA 40 μM, immunofluorescence): remarkable superiority over the porphyrins
- 6-OHDA-induced cytotoxicity (MTT, cell death ELISA) [9, 14]: significantly attenuated 6-OHDA-induced cytotoxicity
- cell mortality, morphology and apoptotic nuclei (GAP-43 immunofluorescence, TUNEL, DAPI) [9, 14]: significantly attenuated 6-OHDA-induced cell mortality, improved cell morphology and reduced the number of apoptotic nuclei
- 6-OHDA-induced increase of cleaved caspase-3 [10]: totally
- preventing H2O2-mediated cytotoxicity [11]: not effective
